“Also recorded” adds a separate entry of the source. Where a name gives a salt, the structure may show the parent alone. Read-outs that look alike come from different tables or passages of the source.
Tests used:
Format in all cases: in vivo
GCL cells = experiment: Rat retinal ischemia model: number of GCL cells (HE staining); conditions: 10 mg/kg i.v.; for Effect on decrease in number of optic nerve cells / optic nerve cell death caused by ischemia: result in words; for Number of GCL cells, A1 (mean): retina point A1, 2 mm from optic nerve papilla; for Number of GCL cells, A1 (mean) / Number of GCL cells, A3 (mean) / Number of GCL cells, A1 + A3 (mean): 60 min ischemia; for Number of GCL cells, A3 (mean): retina point A3, 2 mm from optic nerve papilla; for Number of GCL cells, A1 + A3 (mean): sum of A1 and A3; for Inhibitory rate of decrease in number of optic nerve cells, A1+A3: sum of A1 and A3 data
Experimental: (§1) A 27 G injection needle (4) was attached to an end of the tube. A part about 20 cm below the bottom end of the perfusion line was attached to a supporting bar and the part was lightly fixed by a stand.
(§2) A rat (Crj:CD(SD) IGS, from CHARLES RIVER LABORATORIES JAPAN, Inc.) was anesthetized with pentobarbital sodium (40 mg/kg, i.p.) and the pupil of the eye to be operated were preliminarily dilated by using a mydriasis agent (MYDRIN P; manufactured by SANTEN PHARMACEUTICAL Co., Ltd.).
(§3) Before the surgical operation, the bottle (1) was held up so that the water surface in the perfusion bottle was located on 163.5 cm above the rat eyes in the state of closing the perfusion line (loading an intraocular pressure of […]). After opening the top end, the perfusion line was connected to a differential pressure transducer and the height was adjusted to give a predetermined pressure, followed by closing the line. With confirming the mydriasis under a stereoscopic microscope, the stopper of the perfusion line was loosened and the solution was dropped little by little from the needle point. As the cornea was tightly sandwiched between tweezers and an injection needle (4), the injection needle (4) was punctured into the anterior chamber (5) from the nasal side. Next, the perfusion line was opened to load pressure in the anterior chamber (5). After loading the ischemia for 60 minutes, the injection needle (4) was taken off and the animals were awaken out of the anesthesia with keeping the body temperature at 37° C. In the sham-ischemia group, an injection needle was punctured into the anterior chamber from the nasal side in the state of closing the perfusion line, followed by taking off after 60 minutes.
(§4) (2R)-2-propyloctanoic acid was intravenously administered via the tail vein in a dose of 10 mg/mL/kg once a day for 7 days from the day of the ischemic operation. Dizocilpine maleate ((+)-MK-801 maleate, hereinafter referred to simply as “MK-801”) which is a positive control compound was intravenously administered via the tail vein in a dose of 10 mg/mL/kg once alone 30 minutes before the ischemic operation.
(§5) A rat was anesthetized with pentobarbital sodium (40 mg/kg, i.p.) and fixed at the dorsal position. After incising the subcostal skin, with grasping the xiphoid process with tweezers or a kocher, the upper end of the anterior abdominal muscle was horizontally incised with scissors. Next, after reversing the chest wall, the xiphoid process was grasped with a kocher or the chest wall was grasped with a kocher to expose the heart. The heart was grasped with tweezers and the left ventricular was incised with scissors. Then, the front end of a disposable oral probe for mouse connected to a blood transfusion tube was introduced from the left ventricular to the aorta and the end of the oral probe was grasped with a clamp. The atrial auricula was incised and perfused with physiological saline containing heparin (10 U/mL). The blood transfusion tube and the disposable oral probe for mouse were replaced with fresh ones and perfusion with a 10% neutral formalin buffer was conducted in the same manner as described above for fixation. After fixing, both eyes were taken out, stored in a sample bottle filled with the 10% neutral formalin buffer and subjected to the following evaluation.
(§6) An ischemic eye was excised, embedded and sliced. Next, hematoxylin-eosin staining, GFAP (glial fibrillary acidic protein) staining and S100 staining by the methods as shown in the following (5-2) to (5-4) were carried out.
(1) deparaffinization; (2) water washing; (3) nuclear staining with hematoxylin for 20 minutes; (4) water washing and color development for 10 minutes; (5) eosin for 3 minutes; and (6) dehydration→penetration→enclosure.
Using HE-stained samples thus obtained, GCL cells at two points (A1, A3; refer to FIG. 2) on the retina which are 2 mm apart from the optic nerve papilla (A2) were counted (cells/mm^2).

GFAP-positive cells = experiment: Rat retinal ischemia model: GFAP-positive cell number and area (GFAP staining); conditions: for Effect on changes in number of GFAP-positive cells / Effect on increases in GFAP positive areas: result in words; for inhibition at 10 mg/kg: Rattus norvegicus, iv; for Number of GFAP positive cells, A2 (mean): point A2 (optic nerve papilla); for Area of GFAP positive cells, A2 (mean): point A2; for Area of GFAP positive cells, A3 (mean) / Number of GFAP positive cells, A3 (mean): point A3; for Area of GFAP positive cells, A4 (mean): point A4 (optic nerve)
Experimental: as §1, §2, §3, §4, §5, §6
An anti-GFAP rabbit antibody (cat No. Z0334, DAKO) was used. […]

S100-positive cells = experiment: Rat retinal ischemia model: S100-positive cell number and area (S100 staining); conditions: for Effect on increases in S100 positive areas / Effect on changes in number of S100-positive cells: result in words; for Effect on changes in number of S100-positive cells: A2 and A4 points; for inhibition at 10 mg/kg: Rattus norvegicus, S100, iv; for Area of S100 positive cells, A1 (mean): point A1; for Area of S100 positive cells, A2 (mean) / Number of S100 positive cells, A2 (mean): point A2; for Area of S100 positive cells, A3 (mean): point A3; for Area of S100 positive cells, A4 (mean) / Number of S100 positive cells, A4 (mean): point A4 (optic nerve)
Experimental: as §1, §2, §3, §4, §5, §6
An anti-S 100 rabbit antibody (cat No. Z0311, DAKO) was used. […]

[1] = Single intravenous administration toxicity test in dogs; conditions: 100 mg/kg, single i.v.
Excerpt: Since toxicity of (2R)-2-propyloctanoic acid, a salt thereof or prodrug thereof is low, it can be considered to be sufficiently safe for medicinal uses.

SMILES	Effect on decrease in number of optic nerve cells / optic nerve cell death caused by ischemia (GCL cells)	Number of GCL cells, A1 (mean) (GCL cells) [cells/mm^2]	Number of GCL cells, A3 (mean) (GCL cells) [cells/mm^2]	Number of GCL cells, A1 + A3 (mean) (GCL cells) [cells/mm^2]	Inhibitory rate of decrease in number of optic nerve cells, A1+A3 (GCL cells) [%]	Effect on changes in number of GFAP-positive cells (GFAP-positive cells; 10 mg/kg i.v.)	Effect on increases in GFAP positive areas (GFAP-positive cells; 10 mg/kg i.v.)	Area of GFAP positive cells, A1 (mean) (GFAP-positive cells; point A1, 10 mg/kg i.v.) [% AREA]	Number of GFAP positive cells, A1 (mean) (GFAP-positive cells; point A1, 10 mg/kg i.v.) [cells/mm^2]	Number of GFAP positive cells, A2 (mean) (GFAP-positive cells; 10 mg/kg i.v.) [cells/mm^2]	Area of GFAP positive cells, A2 (mean) (GFAP-positive cells; 10 mg/kg i.v.) [% AREA]	Area of GFAP positive cells, A3 (mean) (GFAP-positive cells; 10 mg/kg i.v.) [% AREA]	Number of GFAP positive cells, A3 (mean) (GFAP-positive cells; 10 mg/kg i.v.) [cells/mm^2]	Area of GFAP positive cells, A4 (mean) (GFAP-positive cells; 10 mg/kg i.v.) [% AREA]	Effect on increases in S100 positive areas (S100-positive cells; 10 mg/kg i.v.)	Effect on changes in number of S100-positive cells (S100-positive cells; 10 mg/kg i.v.)	Area of S100 positive cells, A1 (mean) (S100-positive cells; 10 mg/kg i.v.) [% AREA]	Area of S100 positive cells, A2 (mean) (S100-positive cells; 10 mg/kg i.v.) [% AREA]	Number of S100 positive cells, A2 (mean) (S100-positive cells; 10 mg/kg i.v.) [cells/mm^2]	Area of S100 positive cells, A3 (mean) (S100-positive cells; 10 mg/kg i.v.) [% AREA]	further results
CCCCCC[C@@H](CCC)C(=O)O [(2R)-2-propyloctanoic acid]	showed inhibitory effects; also recorded: remarkable effect of inhibiting optic nerve cell death	116.4	129.9	246.3	52.1	showed inhibitory effects	showed inhibitory effects	4.2	52.6	317.9	10.1	4.2	52.9	16.8	showed inhibitory effects	showed an inhibitory effect	1.9	3.5	295.4	1.6	inhibition at 10 mg/kg (GFAP-positive cells; point A1, 10 mg/kg i.v., read-out: Inhibitory rate of change in number of GFAP-positive cells at point A1): 69%; inhibition at 10 mg/kg (GFAP-positive cells; point A1 as printed, 10 mg/kg i.v., read-out: Inhibitory rate of increase in GFAP positive area at the point A1): 87.8%; inhibition at 10 mg/kg (S100-positive cells; point A4, 10 mg/kg i.v., read-out: Inhibitory rate of increase in S100 positive area at point A4): 93.9%; inhibition at 10 mg/kg (S100-positive cells; point A4, 10 mg/kg i.v., read-out: Inhibitory rate of increase in number of S100-positive cells at point A4): 31.2%; Area of S100 positive cells, A4 (mean) (S100-positive cells; 10 mg/kg i.v.): 3.3 % AREA; Number of S100 positive cells, A4 (mean) (S100-positive cells; 10 mg/kg i.v.): 307.7 cells/mm^2; Lethality after single intravenous administration [1]: no fatal case was observed
C[C@]12N[C@H](Cc3ccccc31)c1ccccc12 [MK-801, Dizocilpine maleate, reference compound]	showed inhibitory effects	125.1	134.9	260.0	59.5	showed inhibitory effects	showed inhibitory effects	3.4	47.8	275.3	11.0	3.6	56.8	17.9	showed inhibitory effects	showed an inhibitory effect exclusively on the increase in the number of S100-positive cells at the A2 point	1.9	3.8	212.9	2.1	inhibition at 10 mg/kg (GFAP-positive cells; read-out: Inhibitory rate of change in number of GFAP-positive cells at point A1): 42.9%; inhibition at 10 mg/kg (GFAP-positive cells; read-out: Inhibitory rate of increase in GFAP positive area at the point A1): 78.3%; inhibition at 10 mg/kg (S100-positive cells; read-out: Inhibitory rate of increase in S100 positive area at point A4): 51.2%; Area of S100 positive cells, A4 (mean) (S100-positive cells; 10 mg/kg i.v.): 6.8 % AREA; Number of S100 positive cells, A4 (mean) (S100-positive cells; 10 mg/kg i.v.): 600.2 cells/mm^2

Source: patent US20090082455A1, “THERAPEUTIC AGENT FOR OPHTHALMIC DISEASE” (ONO PHARMACEUTICAL CO. LTED, priority 2005, published 2009)
